In patent US4534979A, “Polyene compounds useful in the treatment of psoriasis and allergic responses” (USV Pharmaceutical Corp., priority 1984, dated 1985):
Like-named read-outs stand apart in the source and are kept apart here.

Legend:
[1] = tested on: mouse epidermal cell culture; assay: mouse epidermal cell culture, cell proliferation by uptake of tritiated thymidine into DNA; assay type: cell-based; conditions: for activity at 12 µg/mL: Mus musculus, read-out: percentage uptake of tritiated thymidine relative to vehicle control (100%); for percentage uptake in comparison to the standards (TRA, CRA): all time points
[2] = tested on: mouse epidermal cell culture; assay: mouse epidermal cell culture, anti-differentiation activity (Kreyberg staining and nuclei enumeration); assay type: cell-based; set-up: key to culture staining by the Kreyberg technique, score (maximum differentiation 10): Kreyberg staining score; 10 = maximum differentiation; key to nuclei enumeration, score (maximum differentiation 0): nuclei enumeration score; 0 = maximum differentiation; conditions: 12 ug/ml; for culture staining by the Kreyberg technique, score (maximum differentiation 10): first number of the ratio; for nuclei enumeration, score (maximum differentiation 0): second number of the ratio
From the text: (§1) Compounds of this invention are active against various skin disorders, such as acne and psoriasis, when tested according to models considered to be predictive of the clinical condition in humans. The models used were the rhino mouse procedure (Kligman, et al., J. Investigative Dermatology 73, 354 (1979)), the rabbit comedolytic procedure (Mills O. H., Kligman A. M.: Assay of Comedolytic Agents in the Rabbit Ear, Animal Models in Dermatology; Relevance to Human Dermatopharmacology and Dermatotoxicology,edited by H. I. Maibach, New York Churchill-Livingston, 1975, pp. 176-183) and the mouse epidermal cell culture procedure (Marcelo, et al., J. Cell Biol., 79, 356 (1978). Testing was done comparatively against standard retinoids known to be effective in these disorders and against a known α-methyl retinoid (2,7-dimethyl-9-(2,6,6-trimethyl-1-cyclohexene-1-yl)-2,3,6,8-nonatetraenoic acid, referred to as DTCNA).
The ratios in the table represent scoring of two measured parameters, culture staining by the Kreyberg technique (maximum differentiation 10) and nuclei enumeration (maximum differentiation 0). Thus the highest possible anti-differentiative activity would be given by the ratio 0/10.

[3] = tested on: 5-Lipoxygenese pathway (LOX, Rat PMN); assay: lipoxygenase pathway inhibition assay (14C-arachidonic acid oxidation by neutrophil homogenate); assay type: biochemical; conditions: concentration required for inhibition of the 5-Lipoxygenese pathway; read-out: LOX, Rat PMN (I50)
rabbit ear comedones = assay: rabbit comedolytic procedure (rabbit ear model); assay type: in vivo; conditions: concentration of 0.05%, compared with TRA
From the text: as §1
(§2) Activity equal to or greater than the standards and the known compound was shown by 2,5,9-trimethyl-11-(2,6,6-trimethyl-1-cyclohexene-1-yl)-2,4,6,8,10-undecapentaenoic acid (TTCUA).

[4] = tested on: rhino mouse utriculi (pseudocomedones); assay: rhino mouse procedure; assay type: in vivo; conditions: rhino mouse model, concentration 0.05%
From the text: as §1, §2

[5] = 72 h, 12 ug/ml, day 3 of culture exposure to drug
[6] = 120 h, 12 ug/ml, day 5 of culture exposure to drug
[7] = 240 h, 12 ug/ml, day 10 of culture exposure to drug

Row | SMILES | culture staining by the Kreyberg technique, score (maximum differentiation 10) ([2]; day 3) | nuclei enumeration, score (maximum differentiation 0) ([2]; day 3) | culture staining by the Kreyberg technique, score (maximum differentiation 10) ([2]; day 6) | nuclei enumeration, score (maximum differentiation 0) ([2]; day 6) | culture staining by the Kreyberg technique, score (maximum differentiation 10) ([2]; day 10) | nuclei enumeration, score (maximum differentiation 0) ([2]; day 10) | IC50 [3] [µM] | other results
1 | CC1=C(/C=C/C(C)=C/C=C/C(C)=C\C(=O)O)C(C)(C)CCC1 [CRA] | 2 | 7 | 2 | 7 | 2 | 6.5 | – | percentage uptake of tritiated thymidine relative to vehicle control (100%) ([1]; 12 ug/ml, day 3 of culture exposure to drug): 47%; percentage uptake of tritiated thymidine relative to vehicle control (100%) ([1]; 12 ug/ml, day 5 of culture exposure to drug): 75%; percentage uptake of tritiated thymidine relative to vehicle control (100%) ([1]; 12 ug/ml, day 10 of culture exposure to drug): 64%
2 | CC(/C=C/c1ccc(OCc2ccccc2)cc1)=C\C=C\C(=O)O [Example 6, 7-(4-Benzyloxyphenyl)-5-Methyl-Hepta-2,4,6-Trienoic Acid] | – | – | – | – | – | – | 2 | –
3 | CC\C(=C/C=C(C)/C=C/C=C(C)/C=C/C1=C(C)CCCC1(C)C)C(=O)O [Example 3B, 5,9-Dimethyl-2-Ethyl-11-(2,6,6-Trimethyl-1-Cyclohexen-1-yl)-2,4,6,8,10-Undecapentaenoic Acid] | – | – | – | – | – | – | 13 | –
4 | CC1=C(/C=C/C(C)=C/C=C/C(C)=C/C(=O)O)C(C)(C)CCC1 [TRA, trans retinoic acid] | 3 | 5 | 3 | 5 | 2 | 6 | 90 | activity at 12 µg/mL ([1]; 72 h): 77%; activity at 12 µg/mL ([1]; 120 h): 53%; activity at 12 µg/mL ([1]; 240 h): 36%
5 | CC(C=CC1=C(C)CCCC1(C)C)=CC=CC=C(C)C(=O)O [DTCNA] | 3 | 6 | 2 | 6 | 2 | 5 | – | percentage uptake in comparison to the standards (TRA, CRA) ([1]; 12 ug/ml): about the same; activity at 12 µg/mL [1, 5]: 53%; activity at 12 µg/mL [1, 6]: 61%; activity at 12 µg/mL [1, 7]: 60%
6 | CC1=C(/C=C/C(C)=C/C=C/C(C)=C/C=C(\C)C(=O)O)C(C)(C)CCC1 [TTCUA, 2,5,9-trimethyl-11-(2,6,6-trimethyl-1-cyclohexene-1-yl)-2,4,6,8,10-undecapentaenoic acid] | 2 | 6 | 0.5 | 8.5 | 1 | 7.5 | – | ability to reduce comedone size (rabbit ear comedones): equal to trans retinoic acid (TRA); epidermal hyperplasia of the skin [4]: moderate epidermal hyperplasia; ability to reduce the amount of horny impaction in the utriculi ([4]; compared with TRA): equal to TRA; ability to reduce the size of utriculi (pseudocomedones) ([4]; compared with TRA): equal to TRA; skin wrinkling ([4]; versus untreated control animals): significantly less wrinkling; percentage uptake in comparison to the standards (TRA, CRA) ([1]; 12 ug/ml): up to five fold less; activity at 12 µg/mL [1, 5]: 31%; activity at 12 µg/mL [1, 6]: 15%; activity at 12 µg/mL [1, 7]: 21%; anti-differentiation activity ([2]; mouse epidermal cell culture): more active in both parameters than the two standards and high
7 | COc1cc(C)c(/C=C/C(C)=C/C=C/C(=O)O)c(C)c1C [Example 8, 7-(4-Methoxy-2,3,6-Trimethylphenyl)-5-Methyl-Hepta-2,4,6-Trienoic Acid] | – | – | – | – | – | – | 10 | –
